Experiments:
human ALK2 R206H = biological target: T1, human ALK2 R206H (Homo sapiens, UniProt Q04771, R206H); assay: Cell-based ALK2-R206H cell activity assay (Smad1-Ser463/Ser465 phosphorylation by AlphaLISA in HEK293-ALK2-R206H cells); conditions: read-out: Cell Line (Cell Assay IC50)
T1 construct: expressed in transfected cells; host or cells: HEK293 (ATCC CRL1573), lentivirus transduction, blasticidin selection
T1 sequence (Q04771 21-509 R206H): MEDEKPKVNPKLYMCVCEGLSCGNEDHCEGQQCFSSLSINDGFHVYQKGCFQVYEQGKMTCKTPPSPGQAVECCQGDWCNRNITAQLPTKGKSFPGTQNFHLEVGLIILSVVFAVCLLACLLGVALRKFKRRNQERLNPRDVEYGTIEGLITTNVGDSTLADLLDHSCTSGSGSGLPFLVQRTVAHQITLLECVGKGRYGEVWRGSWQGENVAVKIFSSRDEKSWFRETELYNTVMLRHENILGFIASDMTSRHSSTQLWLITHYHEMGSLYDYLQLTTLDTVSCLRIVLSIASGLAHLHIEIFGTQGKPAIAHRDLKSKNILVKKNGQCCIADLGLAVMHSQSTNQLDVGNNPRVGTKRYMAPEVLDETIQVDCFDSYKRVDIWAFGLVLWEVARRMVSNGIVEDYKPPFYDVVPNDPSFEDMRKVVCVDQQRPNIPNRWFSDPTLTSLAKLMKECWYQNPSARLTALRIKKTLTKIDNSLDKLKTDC
Procedure, shortened: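 Stable HEK293 cells expressing C-terminally FLAG-tagged human ALK2 R206H (lentiviral, blasticidin-selected) were treated with compounds in 10-point, 3-fold dilutions from 10 μM or 1 μM top, in duplicate. Smad1 Ser463/Ser465 phosphorylation was read by AlphaLISA.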

[1] = biological target: T2, ALK2 R206H (GST-tagged mutant ALK2) (Homo sapiens, UniProt Q04771, R206H); assay: ALK binding assay (LANTHASCREEN TR-FRET competitive binding, displacement of Kinase Tracer 178); conditions: ALK2 R206H, LANTHASCREEN TR-FRET competitive binding; read-out: Binding Assay (IC50)
T2 construct: purchased Carna Bioscience or ThermoFisher 09-148 or PV6232
T2 sequence (Q04771 21-509 R206H): T1 sequence (Q04771 21-509 R206H)

IC50 (human ALK2 R206H) [nM]	IC50 [1] [nM]	SMILES
< 100	< 10	CC(C)N1CC[C@@H](O)[C@H](c2ccc(-c3cc4c(N5CCN(C(=O)OC6COC6)CC5)ccnn4c3)cc2)C1 [Compound 679]
< 100	< 10	CCN1CCC(c2ccc(-c3cc4c(N5CCN(C(=O)C6CC6)CC5)ccnn4c3)cc2)C(F)C1 (stereo not shown) [Compound 278]
< 100	< 10	CC(C)N1CCC(c2ccc(-c3cc4c(N5CCN(C(=O)OC6CC(C#N)C6)CC5)ccnn4c3)cc2)CC1 (stereo not shown) [Compound 704]
100 to 500	< 10	O=C(C1CC1)N1CCN(c2ccnn3cc(-c4ccc(N5CCN(CCO)CC5)cc4)cc23)CC1 [Compound 274, cyclopropyl(4-(6-(4-(4-(2-hydroxyethyl)piperazin-1-yl)phenyl)pyrrolo[1,2-b]pyridazin-4-yl)piperazin-1-yl)methanone]
100 to 500	< 10	CC(=O)N1CC(OC(=O)N2CCN(c3ccnn4cc(-c5ccc([C@@H]6CCCN(C(C)C)C6)cc5)cc34)CC2)C1 [Compound 853]
< 100	< 10	CC(C)N1CCC[C@]1(C)c1ccc(-c2cc3c(N4CCN(C(=O)C5CC5)CC4)ccnn3c2)cc1 [Compound 510]
< 100	< 10	CC(C)N1CCC(c2ccc(-c3cc4c(N5CCN(C(=O)[C@H]6C[C@@H]6C#N)CC5)ccnn4c3)cc2)CC1 [Compound 365]
< 100	< 10	CCNC(=O)N1CCN(c2ccnn3cc(-c4ccc(N5CCNCC5)cc4)cc23)CC1 [Compound 140]
< 100	< 10	CCNC(=O)N1CCN(c2ccnn3cc(-c4ccc([C@@]5(OCC)CCCN(C(C)C)C5)cc4)cc23)CC1 [Compound 674]
100 to 500	< 10	CCNC(=O)N1CCN(c2ccnn3cc(-c4cnc(N5CCN(C(C)C)CC5)cn4)cc23)CC1 [Compound 554]
< 100	< 10	CCN1CCC(c2ccc(-c3cc4c(N5CCN(C(=O)[C@H]6C[C@](C)(O)C6)CC5)ccnn4c3)cc2)CC1 [Compound 384]
< 100	< 10	CC(C)N1CCC[C@@H](c2ccc(-c3cc4c(N5CCN(C(=O)[C@H]6C[C@H](C#N)C6)CC5)ccnn4c3)nc2)C1 [Compound 653]
< 100	< 10	COC1(c2ccc(-c3cc4c(N5CCN(C(=O)OC6COC6)CC5)ccnn4c3)c(F)c2)CCNCC1 [Compound 650]
< 100	< 10	CCOC(=O)N1CCN(c2ccnn3cc(-c4ccc([C@]5(O)CCN(C(C)C)C5)cc4)cc23)CC1 [Compound 551]
< 100	< 10	CC(C)NC(=O)N1CCN(c2ccnn3cc(-c4ccc(C5CCN(C(C)C)CC5)cc4)cc23)CC1 [Compound 340]
< 100	< 10	CC(C)NC(=O)N1CCN(c2ccnn3cc(-c4ccc(C5COCCN5C(C)C)cc4)cc23)CC1 (stereo not shown) [Compound 594]
< 100	< 10	NC1(c2ccc(-c3cc4c(N5CCN(C(=O)C6CC6)CC5)ccnn4c3)cc2)CCOCC1 [Compound 768]
100 to 500	< 10	O=C(C1CC1)N1CCN(c2ccnn3cc(-c4ccc([C@@H]5CNCCO5)cc4)cc23)CC1 [Compound 131, (R)-cyclopropyl(4-(6-(4-(morpholin-2-yl)phenyl)pyrrolo[1,2-b]pyridazin-4-yl)piperazin-1-yl)methanone]

IC50 (human ALK2 R206H) [nM]	IC50 [1] [nM]	SMILES
< 100	< 10	CCOC(=O)N1CCN(c2ccnn3cc(-c4ccc([C@]5(OCC)CCCNC5)cn4)cc23)CC1 [Compound 787]
< 100	< 10	CC(C)N1CCC(c2ccc(-c3cc4c(N5CCN(C(=O)O[C@@H]6CCOC6)CC5)ccnn4c3)cc2)CC1 [Compound 666]
< 100	< 10	CC(C)N1CCCC(c2ccc(-c3cc4c(N5CCN(C(=O)C6CCC6)CC5)ccnn4c3)cc2)C1 (stereo not shown) [Compound 312]
< 100	< 10	CC(C)N1CC[C@@H](c2ccc(-c3cc4c(N5CCN(C(=O)N6CC(C#N)C6)CC5)ccnn4c3)cc2)C1 [Compound 369]
100 to 500	< 10	CCN1CCC(c2ccc(-c3cc4c(N5CCN(C(=O)N6CCC(C#N)CC6)CC5)ccnn4c3)cc2)CC1 [Compound 428]
< 100	< 10	CCO[C@@]1(c2ccc(-c3cc4c(N5CCN(C(=O)C6CC6)CC5)ccnn4c3)cc2)CCCN(C(C)C)C1 [Compound 656]
100 to 500	< 10	O=C(C1CC1)N1CCN(c2ccnn3cc(-c4ccc(C5CCNC5)cc4)cc23)CC1 (stereo not shown) [Compound 112]
< 100	< 10	CC(C)N1CCC(c2ccc(-c3cc4c(N5CCN(C(=O)C6CC6)CC5)ccnn4c3)cc2)C1 (stereo not shown) [Compound 201]
100 to 500	< 10	CC(C)NC(=O)N1CCN(c2ccnn3cc(-c4ccc([C@]5(O)CCN(C(C)C)C5)cc4)cc23)CC1 [Compound 596]
100 to 500	< 10	O=C(OC1COC1)N1CCN(c2ccnn3cc(-c4ccc(C5CCNCC5)cc4)cc23)CC1 [Compound 773]
< 100	< 10	O=C(C1CC1)N1CCN(c2ccnn3cc(-c4ccc(C5CCCCN5)cc4)cc23)CC1 (stereo not shown) [Compound 125]
100 to 500	< 10	O=C(C1CC1)N1CCN(c2ccnn3cc(-c4ccc(C5(F)CCNCC5)cc4)cc23)CC1 [Compound 474]
< 100	< 10	CCN1CCN(c2ccc(-c3cc4c(N5CCN(C(=O)[C@H]6C[C@@H]6C#N)CC5)ccnn4c3)cc2)CC1 [Compound 302]
< 100	< 10	CC[C@H](C)N1CCC[C@@H](c2ccc(-c3cc4c(N5CCN(C(=O)C6CC6)CC5)ccnn4c3)cc2)C1 [Compound 561]
< 100	< 10	CCN1CCC(Oc2ccc(-c3cc4c(N5CCN(C(=O)C6CC6)CC5)ccnn4c3)cc2)C1 (stereo not shown) [Compound 216]
< 100	< 10	CC(C)N1CC(O)(c2ccc(-c3cc4c(N5CCN(C(=O)C6CCC(C#N)CC6)CC5)ccnn4c3)cc2)C1 (stereo not shown) [Compound 706]
< 100	< 10	CC(C)N1CC[C@@H](OC(F)F)[C@H](c2ccc(-c3cc4c(N5CCN(C(=O)C6CC6)CC5)ccnn4c3)cc2)C1 [Compound 849]
< 100	< 10	CC(C)N1CC[C@@H](c2ccc(-c3cc4c(N5CCN(C(=O)[C@H]6CC[C@H](O)CC6)CC5)ccnn4c3)cc2)C1 [Compound 419]

SMILES	IC50 (human ALK2 R206H) [nM]	IC50 [1] [nM]
O=C(C1CC1)N1CCN(c2ccnn3cc(-c4ccc(C5(O)CN6CCC5CC6)cc4)cc23)CC1 (stereo not shown) [Compound 501]	100 to 500	< 10
COC1(c2ccc(-c3cc4c(N5CCN(C(=O)C6CC6)CC5)ccnn4c3)c(F)c2)CCN(C(C)C)CC1 [Compound 682]	< 100	< 10
COC1(c2ccc(-c3cc4c(N5CCN(C(=O)OC6COC6)CC5)ccnn4c3)cc2)CCN([C@@H](C)COC(F)F)CC1 [Compound 896]	< 100	< 10
CCOC1(c2ccc(-c3cc4c(N5CCN(C(=O)OC6COC6)CC5)ccnn4c3)cc2)CCN(C(C)C)CC1 [Compound 857]	< 100	< 10
COC1(c2ccc(-c3cc4c(N5CCN(C(=O)NC(C)C)CC5)ccnn4c3)nc2)CCN([C@H](C)COC(F)F)CC1 [Compound 750]	< 100	< 10
